Source: publication PMC12631900, “Preservation of ALYREF Phase Separation Mitigates Doxorubicin‐Induced Cardiomyocyte DNA Damage and Cardiotoxicity” (Advanced Science, 2025)

Columns and labels:
ALYREF [1] = target: T1, ALYREF (Mus musculus, UniProt O08583, DEL171-171); experiment: cellular thermal shift assay (also DARTS in lysate); type: cell-based; settings: Flag-tagged mutant transfected into mouse cardiomyocytes
T1 construct: full length; endogenous in neonatal mouse cardiomyocytes (wild type); Flag-tagged plasmids transfected into the cardiomyocytes for the deletion mutants

ALYREF [2] = target: T2, ALYREF (Mus musculus, UniProt O08583, DEL113-113); experiment: as above; type: cell-based; settings: Flag-tagged mutant transfected into mouse cardiomyocytes
T2 construct: full length; endogenous in neonatal mouse cardiomyocytes (wild type); Flag-tagged plasmids transfected into the cardiomyocytes for the deletion mutants

ALYREF [3] = target: T3, ALYREF (Mus musculus, UniProt O08583); experiment: as above; type: cell-based; settings: mouse cardiomyocytes; 40 to 67 °C, 3 min; vs DMSO
T3 construct: full length; endogenous in neonatal mouse cardiomyocytes (wild type); Flag-tagged plasmids transfected into the cardiomyocytes for the deletion mutants

[4] = target: ALYREF (purified recombinant, pSMARt‐I‐ALYREF) (Mus musculus, UniProt O08583); experiment: in vitro droplet (phase separation) assay, microscopy; type: biochemical; settings: 250 mmol/L Tris pH 8.0, 10% PEG-8000, room temperature

SMILES: COc1cccc2c1C(=O)c1c(O)c3c(c(O)c1C2=O)C[C@@](O)(C(=O)CO)C[C@@H]3O[C@H]1C[C@H](N)[C@H](O)[C@H](C)O1 [doxorubicin]
- binding abolished (DARTS, CESTA) (ALYREF [1]): Deletion of D171 abolished the interaction between ALYREF and DOX
- binding retained (DARTS, CESTA) (ALYREF [2]): DOX remained capable of binding to the ΔD113 mutant
- thermal stability (CESTA) (ALYREF [3]): DOX treatment significantly increased the thermal stability of ALYREF compared with the DMSO control
- droplet disruption [4]: also disrupted by DOX, which caused droplet disintegration and structural irregularity
